Starred links: 1 amine or outer side, 2 acyl side, 3 side chain; linkers in the order of their positions; H or OH if unused. Positions of bridges follow the written chain, without caps; N, C: chain ends. Non-standard residues stand in square brackets, D forms with d. Residues, ends and D or L forms follow the SMILES beside them. *: point of attachment. Leu(3R-OH,Nα-propionyl) = CCC(=O)N[C@H](C(=O)*)[C@H](O)C(C)C; X1 = CC(C)[C@@H](O[*:3])[C@H](N[*:1])C(=O)[*:2]; X2 = CC(C)[C@H](O[*:3])[C@@H](N[*:1])C(=O)[*:2]; NMeaThr = CN[C@H](C(=O)O)[C@H](C)O; dPhLac = O=C(O)[C@H](O)Cc1ccccc1; NMeA = CN[C@@H](C)C(=O)O; NMeDha = C=C(NC)C(=O)O
Tested on: 92.1 UM cells
Assay: Gene Set Enrichment Analysis (GSEA) of RNA-Seq data
Type: cell-based, Human
[1] = gene set #CAFFAREL_RESPONSE_TO_THC_DN
[2] = gene set ALCALAY_AML_BY_NPM1_LOCALIZATION_DN
[3] = gene set BASSO_[?]_LYMPHOCYTE_NETWORK
[4] = gene set CHIANG_LIVER_CANCER_SUBCLASS_UNANNOTATED_DN
[5] = gene set CHICAS_RB1_TARGETS_GROWING
[6] = gene set CHICAS_RB1_TARGETS_SENESCENT
[7] = gene set DOUGLAS_[?]_TARGETS_UP
[8] = gene set ELVIDGE_HIF1A_TARGETS_UP
[9] = gene set FERRANDO_T_ALL_WITH_MLL_ENL_FUSION_DN
[10] = gene set FOURNIER_ACINAR_DEVELOPMENT_LATE_DN
[11] = gene set GARCIA_TARGETS_OF_FL[?]_AND_DAX1_DN
[12] = gene set GROSS_HYPOXIA_VIA_ELK3_UP
[13] = gene set GRUETZMANN_PANCREATIC_CANCER_UP
[14] = gene set IVANOVA_HEMATOPOIESIS_LATE_PROGENITOR
[15] = gene set JOHNSTONE_PARVES_TARGETS_2_DN
[16] = gene set KEGG_AMINO_SUGAR_AND_NUCLEOTIDE_SUGAR_METABOLISM
[17] = gene set KEGG_CITRATE_CYCLE_TCA_CYCLE
[18] = gene set KEGG_FC_GAMMA_[?]_MEIATED_PHAGOCYTOSIS
[19] = gene set KEGG_PATHOGENIC_ESCHERICHIA_COLI_INFECTION
[20] = gene set LASTOWSKA_NEUROBLASTOMA_COPY_NUMBER_DN
[21] = gene set MARIADASON_REGULATED_BY_HISTONE_ACETYLATION_DN
[22] = gene set MARTINEZ_RESPONSE_TO_TRABECTEDIN_DN
[23] = gene set MEINHOLD_OVARIAN_CANCER_LOW_GRADE_DN
[24] = gene set ONDER_CDH1_TARGETS_1_DN
[25] = gene set OXFORD_RALA_OR_RALB_TARGETS_UP
[26] = gene set PEART_HDAC_PROLIFERATION_CLUSTER_DN
[27] = gene set PODAR_RESPONSE_TO_ADAPHOSTIN_DN
[28] = gene set PRAMOONIAGO_SOX4_TARGETS_DN
[29] = gene set PUIFFE_INVASION_INHIBITED_BY_ASCITES_UP
[30] = gene set REACTOME_ACTIVATION_OF_CHAPERONE_GENES_BY_XBP15

## C=C1C(=O)N[C@@H](C)C(=O)N(C)[C@@H](C)C(=O)N[C@H]([C@@H](OC(=O)[C@@H](NC(=O)CC)[C@H](O)C(C)C)C(C)C)C(=O)N(C)[C@@H]([C@H](C)OC)C(=O)O[C@H](C(C)C)[C@H](NC(C)=O)C(=O)O[C@H](Cc2ccccc2)C(=O)N1C [FR, [(1S)-1-[(3S,6R,9S,12S,18R,21S,22R)-21-acetamido-18-benzyl-3-[(1S)-1-methoxyethyl]-4,9,10,12,16-pentamethyl-15-methylidene-2,5,8,11,14,17,20-heptaoxo-22-propan-2-yl-1,19-dioxa-4,7,10,13,16-pentazacyclodocos-6-yl]-2-methylpropyl] (2S,3R)-3-hydroxy-4-methyl-2-(propanoylamino)pentanoate] (Ac-[X1][dPhLac][NMeDha]A[NMeA][X2](Leu(3R-OH,Nα-propionyl))[NMeaThr](Me); ester 1-C)
[1]
  ES: 0.6253
  NES: 2.134
[2]
  ES: 0.4726
  NES: 2.261
[3]
  ES: 0.4691
  NES: 2.175
Gene set BENPORATH_ES_1
  ES: 0.3997
  NES: 2.093
Gene set BIOCARTA_RHO_PATHWAY
  ES: 0.6245
  NES: 2.154
[4]
  ES: 0.4436
  NES: 2.13
[5]
  ES: 0.4131
  NES: 2.057
[6]
  ES: 0.4124
  NES: 2.254
Gene set CSR_EARLY_UP.V1_UP
  ES: 0.4601
  NES: 2.136
[7]
  ES: 0.3969
  NES: 2.179
[8]
  ES: 0.5452
  NES: 2.195
[9]
  ES: 0.5186
  NES: 2.174
[10]
  ES: 0.6475
  NES: 2.082
Gene set GABP_B
  ES: 0.419
  NES: 2.063
[11]
  ES: 0.4628
  NES: 2.153
[12]
  ES: 0.4432
  NES: 2.179
[13]
  ES: 0.393
  NES: 2.047
[14]
  ES: 0.4037
  NES: 2.155
Gene set JIANG_VHL_TARGETS
  ES: 0.4893
  NES: 2.171
[15]
  ES: 0.4128
  NES: 2.133
[16]
  ES: 0.5976
  NES: 2.088
[17]
  ES: 0.6499
  NES: 2.188
[18]
  ES: 0.5262
  NES: 2.154
[19]
  ES: 0.5693
  NES: 2.167
[20]
  ES: 0.3819
  NES: 2.135
Gene set LINSLEY_MIR16_TARGETS
  ES: 0.4327
  NES: 2.092
Gene set LIN_APC_TARGETS
  ES: 0.5227
  NES: 2.086
Gene set LY_AGING_PREMATURE_DN
  ES: 0.6267
  NES: 2.103
[21]
  ES: 0.5871
  NES: 2.132
[22]
  ES: 0.4324
  NES: 2.184
[23]
  ES: 0.7218
  NES: 2.197
Gene set NPS14_DN.V1_DN
  ES: 0.4491
  NES: 2.133
[24]
  ES: 0.4845
  NES: 2.225
[25]
  ES: 0.544
  NES: 2.089
Gene set PBC2_EED_UP.V1_DN
  ES: 0.4268
  NES: 2.076
[26]
  ES: 0.4996
  NES: 2.059
Gene set PIC_DCD42_REG_PATHWAY
  ES: 0.5968
  NES: 2.051
Gene set PIC_E2F_PATHWAY
  ES: 0.5204
  NES: 2.172
Gene set PIC_FANCONE_PATHWAY
  ES: 0.5661
  NES: 2.097
Gene set PIC_FCER1_PATHWAY
  ES: 0.5656
  NES: 2.102
Gene set PID_PDGFRB_PATHWAY
  ES: 0.4862
  NES: 2.232
Gene set PIO_AURORA_A_PATHWAY
  ES: 0.6657
  NES: 2.186
Gene set PIO_TCR_PATHWAY
  ES: 0.6
  NES: 2.184
[27]
  ES: 0.6921
  NES: 2.117
[28]
  ES: 0.5652
  NES: 2.158
[29]
  ES: 0.5104
  NES: 2.126
Gene set RACTOME_IMMUNE_SYSTEM
  ES: 0.3664
  NES: 2.063
Gene set RB_P107_0N, L1_UP
  ES: 0.4941
  NES: 2.216
[30]
  ES: 0.5859
  NES: 2.116
